# Test results reported in patent publication US8168651B2, “Protein kinase modulators” (Cylene Pharmaceuticals, Inc., priority 2008, dated 2012).
# Legend:
# Assay in all cases: Standardized radiometric kinase assays, percentage of activity at 0.5 μM;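 also: Read-out is ³³P-labelled substrate protein phosphorylated by each kinase, captured on filters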
# [1] = molecular target: each individual kinase of the panel (Homo sapiens, UniProt P07948)
# [2] = molecular target: each individual kinase of the panel (Homo sapiens, UniProt Q13237)
# Sequence of each individual kinase of the panel (Homo sapiens, UniProt Q13237) (Q13237 2-762 limits assumed): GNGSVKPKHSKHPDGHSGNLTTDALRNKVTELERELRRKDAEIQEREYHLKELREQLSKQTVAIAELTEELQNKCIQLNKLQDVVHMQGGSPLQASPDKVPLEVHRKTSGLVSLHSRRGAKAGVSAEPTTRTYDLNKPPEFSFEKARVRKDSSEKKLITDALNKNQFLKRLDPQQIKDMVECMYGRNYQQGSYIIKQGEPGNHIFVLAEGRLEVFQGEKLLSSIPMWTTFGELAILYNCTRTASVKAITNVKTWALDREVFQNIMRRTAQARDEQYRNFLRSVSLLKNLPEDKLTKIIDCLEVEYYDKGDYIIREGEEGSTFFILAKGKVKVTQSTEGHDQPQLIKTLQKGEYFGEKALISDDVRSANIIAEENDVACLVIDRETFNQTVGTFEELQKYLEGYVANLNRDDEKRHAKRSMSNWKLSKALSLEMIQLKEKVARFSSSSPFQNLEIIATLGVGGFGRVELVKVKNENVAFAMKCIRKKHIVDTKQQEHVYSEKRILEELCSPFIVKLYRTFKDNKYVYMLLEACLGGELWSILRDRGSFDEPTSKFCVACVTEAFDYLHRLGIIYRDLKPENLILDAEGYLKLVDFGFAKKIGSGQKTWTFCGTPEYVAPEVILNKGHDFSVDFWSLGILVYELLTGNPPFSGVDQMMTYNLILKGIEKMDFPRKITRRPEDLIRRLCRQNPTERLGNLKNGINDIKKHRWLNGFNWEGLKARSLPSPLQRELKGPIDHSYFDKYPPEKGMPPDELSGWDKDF
# [3] = molecular target: each individual kinase of the panel (Homo sapiens, UniProt Q9BXA7)
# [4] = molecular target: each individual kinase of the panel (Homo sapiens, UniProt Q96PF2)
# [5] = molecular target: each individual kinase of the panel (Homo sapiens, UniProt Q9HBY8)
# [6] = molecular target: each individual kinase of the panel (Homo sapiens, UniProt O43318)
# [7] = molecular target: each individual kinase of the panel (Homo sapiens, UniProt P34947)
# [8] = molecular target: each individual kinase of the panel (Homo sapiens, UniProt O00418)
# Sequence of each individual kinase of the panel (Homo sapiens, UniProt O00418) (O00418 2-725 limits assumed): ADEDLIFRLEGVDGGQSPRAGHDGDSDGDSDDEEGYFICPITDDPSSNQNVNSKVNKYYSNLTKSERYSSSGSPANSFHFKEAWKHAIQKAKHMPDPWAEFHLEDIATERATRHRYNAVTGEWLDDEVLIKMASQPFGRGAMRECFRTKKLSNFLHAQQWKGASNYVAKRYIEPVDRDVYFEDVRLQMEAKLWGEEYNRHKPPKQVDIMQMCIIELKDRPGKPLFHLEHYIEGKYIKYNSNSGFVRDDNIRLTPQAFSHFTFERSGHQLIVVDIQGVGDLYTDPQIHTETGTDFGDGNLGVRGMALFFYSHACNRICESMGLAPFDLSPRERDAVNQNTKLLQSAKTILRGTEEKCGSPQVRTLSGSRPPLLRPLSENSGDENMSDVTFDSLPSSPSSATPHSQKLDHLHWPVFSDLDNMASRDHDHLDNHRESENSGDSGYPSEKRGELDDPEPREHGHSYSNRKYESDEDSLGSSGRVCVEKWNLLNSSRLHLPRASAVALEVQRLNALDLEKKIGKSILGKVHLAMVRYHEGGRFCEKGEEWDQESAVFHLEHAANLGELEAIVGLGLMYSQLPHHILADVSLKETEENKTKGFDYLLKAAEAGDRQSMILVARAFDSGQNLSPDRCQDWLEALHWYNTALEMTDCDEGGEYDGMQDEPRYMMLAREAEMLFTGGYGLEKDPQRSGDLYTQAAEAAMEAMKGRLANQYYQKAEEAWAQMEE
# [9] = molecular target: each individual kinase of the panel (Homo sapiens, UniProt Q96RG2)
# [10] = molecular target: each individual kinase of the panel (Homo sapiens, UniProt Q12866)
# Sequence of each individual kinase of the panel (Homo sapiens, UniProt Q12866) (Q12866 21-999 limits assumed): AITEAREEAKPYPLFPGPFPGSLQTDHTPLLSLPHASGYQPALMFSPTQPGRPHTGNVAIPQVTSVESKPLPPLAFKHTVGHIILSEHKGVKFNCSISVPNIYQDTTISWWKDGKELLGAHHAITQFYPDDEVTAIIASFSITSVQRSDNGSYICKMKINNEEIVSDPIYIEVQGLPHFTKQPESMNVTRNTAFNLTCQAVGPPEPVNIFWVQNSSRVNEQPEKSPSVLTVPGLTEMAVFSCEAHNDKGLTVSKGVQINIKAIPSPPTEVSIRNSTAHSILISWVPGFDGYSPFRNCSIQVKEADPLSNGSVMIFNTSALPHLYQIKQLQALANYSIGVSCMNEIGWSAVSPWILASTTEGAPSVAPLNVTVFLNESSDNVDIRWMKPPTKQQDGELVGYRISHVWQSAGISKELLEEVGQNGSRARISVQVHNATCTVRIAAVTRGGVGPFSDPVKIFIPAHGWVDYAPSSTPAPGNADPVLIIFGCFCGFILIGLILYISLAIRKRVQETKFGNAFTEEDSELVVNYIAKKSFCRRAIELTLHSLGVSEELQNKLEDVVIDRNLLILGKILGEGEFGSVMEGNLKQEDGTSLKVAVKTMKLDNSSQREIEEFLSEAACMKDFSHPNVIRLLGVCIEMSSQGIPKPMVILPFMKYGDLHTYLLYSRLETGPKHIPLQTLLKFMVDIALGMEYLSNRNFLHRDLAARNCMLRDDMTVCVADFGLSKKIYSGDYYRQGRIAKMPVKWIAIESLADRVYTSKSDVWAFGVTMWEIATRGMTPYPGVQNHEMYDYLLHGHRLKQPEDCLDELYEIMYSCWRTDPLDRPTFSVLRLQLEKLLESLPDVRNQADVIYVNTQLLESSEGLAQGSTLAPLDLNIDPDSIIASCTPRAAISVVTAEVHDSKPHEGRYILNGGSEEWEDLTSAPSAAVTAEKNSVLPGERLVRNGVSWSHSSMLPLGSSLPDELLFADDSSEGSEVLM
# [11] = molecular target: each individual kinase of the panel (Homo sapiens, UniProt Q9Y3S1)
# [12] = molecular target: each individual kinase of the panel (Homo sapiens, UniProt Q04759)
# [13] = molecular target: each individual kinase of the panel (Homo sapiens, UniProt P52333)
# [14] = molecular target: each individual kinase of the panel (Homo sapiens, UniProt P05129)
# [15] = molecular target: each individual kinase of the panel (Homo sapiens, UniProt P19784)
# [16] = molecular target: each individual kinase of the panel (Homo sapiens, UniProt O96017, I157T)
# [17] = molecular target: each individual kinase of the panel (Homo sapiens, UniProt P43250)
# [18] = molecular target: each individual kinase of the panel (Homo sapiens, UniProt P53778)
# [19] = molecular target: each individual kinase of the panel (Homo sapiens, UniProt Q86Y07)
# [20] = molecular target: each individual kinase of the panel (Homo sapiens, UniProt O96017, R145W)
# [21] = molecular target: each individual kinase of the panel (Homo sapiens, UniProt Q9HBH9)
# [22] = molecular target: each individual kinase of the panel (Homo sapiens, UniProt P80192)
# [23] = molecular target: each individual kinase of the panel (Homo sapiens, UniProt Q16620)
# Sequence of each individual kinase of the panel (Homo sapiens, UniProt Q16620) (Q16620 32-822 limits assumed): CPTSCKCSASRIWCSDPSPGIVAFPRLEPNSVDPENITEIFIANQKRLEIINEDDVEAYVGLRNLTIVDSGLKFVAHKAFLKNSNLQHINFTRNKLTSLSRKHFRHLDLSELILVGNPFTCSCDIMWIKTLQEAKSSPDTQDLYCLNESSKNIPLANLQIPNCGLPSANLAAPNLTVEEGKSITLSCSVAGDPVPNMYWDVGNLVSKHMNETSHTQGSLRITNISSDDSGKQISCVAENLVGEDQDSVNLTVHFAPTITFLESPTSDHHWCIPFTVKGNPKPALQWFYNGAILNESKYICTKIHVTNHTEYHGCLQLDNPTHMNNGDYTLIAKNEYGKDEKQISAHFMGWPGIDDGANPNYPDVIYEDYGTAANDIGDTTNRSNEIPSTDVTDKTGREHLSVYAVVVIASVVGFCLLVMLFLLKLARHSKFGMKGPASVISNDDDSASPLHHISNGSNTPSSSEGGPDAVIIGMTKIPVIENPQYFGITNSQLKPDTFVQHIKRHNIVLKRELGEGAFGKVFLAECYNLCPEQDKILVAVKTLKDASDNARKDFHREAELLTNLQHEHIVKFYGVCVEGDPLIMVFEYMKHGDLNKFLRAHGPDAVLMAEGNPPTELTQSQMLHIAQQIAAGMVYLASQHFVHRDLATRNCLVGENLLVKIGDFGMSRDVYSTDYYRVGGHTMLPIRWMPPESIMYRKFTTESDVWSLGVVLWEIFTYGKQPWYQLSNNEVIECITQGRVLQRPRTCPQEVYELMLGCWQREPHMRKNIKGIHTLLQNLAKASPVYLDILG
# [24] = molecular target: each individual kinase of the panel (Mus musculus, UniProt P16277)
# Sequence of each individual kinase of the panel (Mus musculus, UniProt P16277) (P16277 2-499 limits assumed): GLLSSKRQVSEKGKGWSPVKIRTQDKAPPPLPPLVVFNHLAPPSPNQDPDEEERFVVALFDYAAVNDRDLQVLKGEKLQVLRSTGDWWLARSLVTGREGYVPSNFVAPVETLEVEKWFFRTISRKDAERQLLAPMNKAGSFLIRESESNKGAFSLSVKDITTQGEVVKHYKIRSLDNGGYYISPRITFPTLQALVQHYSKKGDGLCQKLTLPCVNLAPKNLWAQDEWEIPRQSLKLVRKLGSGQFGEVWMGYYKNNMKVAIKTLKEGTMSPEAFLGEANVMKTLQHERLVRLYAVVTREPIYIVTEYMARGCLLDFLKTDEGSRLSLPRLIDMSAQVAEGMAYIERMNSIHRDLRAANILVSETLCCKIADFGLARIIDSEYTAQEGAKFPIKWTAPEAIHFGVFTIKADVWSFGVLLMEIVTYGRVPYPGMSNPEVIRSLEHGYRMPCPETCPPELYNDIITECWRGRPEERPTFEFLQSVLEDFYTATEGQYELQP
# [25] = molecular target: each individual kinase of the panel (Homo sapiens, UniProt P29322)
# Sequence of each individual kinase of the panel (Homo sapiens, UniProt P29322) (P29322 28-1005 limits assumed): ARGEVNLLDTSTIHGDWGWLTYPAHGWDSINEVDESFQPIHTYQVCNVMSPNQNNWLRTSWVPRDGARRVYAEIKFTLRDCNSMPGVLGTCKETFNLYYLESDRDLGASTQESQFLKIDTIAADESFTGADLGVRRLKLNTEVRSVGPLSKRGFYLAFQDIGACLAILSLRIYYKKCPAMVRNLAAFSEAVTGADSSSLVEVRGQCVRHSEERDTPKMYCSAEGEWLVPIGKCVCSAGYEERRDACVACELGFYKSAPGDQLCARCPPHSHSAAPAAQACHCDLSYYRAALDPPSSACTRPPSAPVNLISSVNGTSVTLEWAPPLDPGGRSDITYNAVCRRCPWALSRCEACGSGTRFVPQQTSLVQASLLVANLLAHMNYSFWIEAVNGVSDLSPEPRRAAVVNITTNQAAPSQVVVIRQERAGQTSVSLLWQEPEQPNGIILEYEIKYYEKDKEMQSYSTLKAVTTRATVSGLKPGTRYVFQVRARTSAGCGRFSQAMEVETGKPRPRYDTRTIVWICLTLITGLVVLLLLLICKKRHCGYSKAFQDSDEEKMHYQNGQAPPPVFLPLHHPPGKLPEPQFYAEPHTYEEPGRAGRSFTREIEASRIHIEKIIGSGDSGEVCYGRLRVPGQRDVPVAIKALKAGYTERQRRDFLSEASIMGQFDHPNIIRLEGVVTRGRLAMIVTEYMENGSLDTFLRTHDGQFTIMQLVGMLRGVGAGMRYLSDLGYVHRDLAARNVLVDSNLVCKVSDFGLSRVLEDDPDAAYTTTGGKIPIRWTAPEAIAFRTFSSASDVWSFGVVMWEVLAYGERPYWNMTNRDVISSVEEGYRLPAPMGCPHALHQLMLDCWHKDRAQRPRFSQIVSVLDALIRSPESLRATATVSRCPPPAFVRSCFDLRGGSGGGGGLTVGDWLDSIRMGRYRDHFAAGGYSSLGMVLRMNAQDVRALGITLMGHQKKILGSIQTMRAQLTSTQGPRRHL
# [26] = molecular target: each individual kinase of the panel (Homo sapiens, UniProt O96017)
structure (smiles),measurement,setting,value
O=C(O)c1ccc2c(c1)nc(Nc1cccc(Cl)c1)c1ccncc12 [drawing 1136],LYN percentage of activity,[1],13%
same,PRKG2 percentage of activity,[2],−10%
same,TSSK1 percentage of activity,[3],−12%
same,TSSK2 percentage of activity,[4],−11%
same,SGK2 percentage of activity,[5],4%
same,TAK1 percentage of activity,[6],4%
same,GRK5 percentage of activity,[7],74%
same,eEF−2K(h) percentage of activity,[8],3%
same,PASK percentage of activity,[9],85%
same,MER percentage of activity,[10],82%
same,WNK2 percentage of activity,[11],4%
same,PRKCT percentage of activity,[12],−3%
same,JAK3 percentage of activity,[13],37%
same,PRKCG percentage of activity,[14],6%
same,CK2 alpha 2 percentage of activity,[15],103%
same,CHK2(1157T) (h) percentage of activity,[16],15%
same,GRK6 percentage of activity,[17],44%
same,p38-gamma percentage of activity,[18],21%
same,VRK2 percentage of activity,[19],−3%
same,CHK2(R145W) (h) percentage of activity,[20],6%
same,Mnk2 percentage of activity,[21],79%
same,MLK1 percentage of activity,[22],43%
same,TRKB percentage of activity,[23],24%
same,Blk(m) percentage of activity,[24],14%
same,EPHA8 percentage of activity,[25],−10%
same,CHK2 percentage of activity,[26],20%
